Results: patent US8673864B2, “Mangiferin-berberine salt, manufacturing method and use thereof” (Hainan Deze Drug Research Co., Ltd., priority 2009, dated 2014)

How the values were obtained:
[1] = Solubility of mangiferin-berberine salt in water; assay type: physicochemical
Method: Its chemical structure is as follows:
5 mg mangiferin-berberine salt powder which is weighed up accurately is put into 50 ml distilled water under 25° C.±2° C., the solution is shaken strongly 30 seconds every 5 minutes. There are solute particles in 30 minutes. The water solubility of mangiferin-berberine salt is less than 0.1 mg/ml. Mangiferin-berberine salt is hardly solubility substance in water.

rheumatoid arthritis rat = test: Effect on rheumatoid arthritis rat (collagen type II model), foot swelling; assay type: in vivo, rats; conditions: versus model group
Method: (§1) Wistar rats, female, 100±20 g. Acid-soluble Bovine-derived collagen type II (Collagen II) and Freund's incomplete adjuvant was purchased from Sigma. TNF-α kit was purchased from Nanjing Jiancheng Biological Engineering Institute.
(§2) The Acid-soluble Bovine-derived collagen type II (C II) with Freund's incomplete adjuvant, was made up to 2.5 mg/ml emulsion, Every rat was injected emulsion containing […] by intradermal in the right rear paw in order to inflame.
(§3) Normal rats group (control group, n=10); model rats group (n=10); mangiferin-berberine salt low dose group (10 mg/kg, n=10, BML); mangiferin-berberine salt middle dose group (20 mg/kg, n=10, BMM); mangiferin-berberine salt high dose group (40 mg/kg, n=10, BMH); Dexamethasone Sodium Phosphate group (0.1 mg/kg, Dexa, n=10).
(§4) Two weeks after primary immunization, test samples or vehicle control was given orally for 4 weeks. Normal and model rats group were given the saline of an equal volume.
Foot swelling: Measurement the volume of right hind foot by capillary enlarge measure method, calculated swelling growth percentage [(value after administration−value before administration)/value before administration]×100%.

AMPK = test: Activation of AMPK in L6 cells (Western blot, phospho-AMPK Thr172); assay type: cell-based, rat; conditions: 1.25-5 μmol/L, 3 h, dose-dependent
Method: (§5) Mangiferin-berberine salt that is obtained by the method of embodiments as above dissolves in DMSO. Before use it is diluted by culture medium or HBS. The ultimate concentration of DMSO is less than 0.2%.
(§6) The rat L6 cell line was obtained from the ATCC. HG-DMEM was from GIBCO™. Fetal bovine serum (FBS) was purchased from Hyclone. Anti-AMPK, anti-ACC, antiphospho-AMPK (Thr172), antiphospho-ACC (ser79) polyclonal antibodies were from Cell Signal Technology.
(§7) L6 cells were grown in HG-DMEM containing 10% (v/v) FBS, 100 units/ml penicillin and 100 U/ml streptomycin in a humidified atmosphere of 5% CO2 at 37° C. When the cells covered 60%, the medium was switched to HG-DMEM with 2% FBS and the culture medium was replaced every two days until that the cells covered about 90%.
(§8) Cells in 6-well plates were starved in serum-free HG-DMEM, and then samples were added into serum-free HG-DMEM; the concentration of DMSO is 0.2%. The samples incubated for 3 h in the cells. […]
(§9) Samples were electrophoresed on 10% SDS-polyacrylamide gels, and transferred to PVDF membranes under 100V and 1-2 h in the transmembrane instrument. Protein in the gel was transferred to […] under the state of half dry, and the band was determined by Ponceau S (Ponceau S). […]

[2] = Solubility in different pH water (hydrochloric acid adjusted); assay type: physicochemical
Method: (§10) As the pH of human gastric juice is 1-3, the above properties of mangiferin-berberine salt can be well dissolved in gastric juice, which is very conducive to the absorption of drugs in the body. Any ratio mangiferin-berberine composition can not increase the solubility in the acidic water.
Take pure water; add hydrochloric acid to adjust pH to 1 and 3 and 5 separately. Take the water 50 ml of different pH; weigh up accurately 50 mg mangiferin-berberine salt powder, put into the 50 ml water as above, shake and observe dissolved phenomena.
Take the water 50 ml of different pH 1 and 3; weigh up accurately 100 mg mangiferin-berberine salt powder, put into the 50 ml water as above, shake and observed dissolved phenomena.
Take the water 50 ml of pH 1; weigh up accurately 200 mg mangiferin-berberine salt powder, put into the 50 ml water as above, shake and observed dissolved situation.
Take the water 50 ml of pH 1 for three copies; weigh up accurately 50 mg mangiferin and berberine composition powder (the molecular ratio of mangiferin and berberine is 1:1, 1:3, 1:5), put into the 50 ml water as above separately, shake and observed dissolved phenomena. The trace of the mangiferin and berberine compositions that include all ratios as above can dissolve.

TNF-α = test: Serum TNF-α in rheumatoid arthritis rat (ELISA); assay type: in vivo, rats; conditions: versus model group
Method: as §1, §2, §3, §4
4.2 Cytokines: The blood specimens were taken from femoral artery at the end of the experiment, and serum was extracted, then frozen. TNF-α was measured according to the instructions of ELISA kit.

dementia rats = test: Effect on Aβ1-40-induced dementia rats (Morris water maze); assay type: in vivo; conditions: versus model group
Method: SD male rats, SPF, 250˜300 g, free drinking water and eating food, before the experiment in a lab environment adapted for 2-3d, the temperature of the laboratory was controlled at 25° C., relative humidity was 40%-80%.
Sham surgery rats group (control group, n=10) were injected the saline of an equal volume in the hippocampus; model rats group (n=10) were treated by Aβ1-40; mangiferin-berberine salt low dose group (20 mg/kg, n=10, BML); mangiferin-berberine salt middle dose group (40 mg/kg, n=10, BMM); mangiferin-berberine salt high dose group (80 mg/kg, n=10, BMH).
Test samples or vehicle control was given orally for 4 weeks, one week before modeled. Maze training period, administrated in 0.5 h before training.
Injected […] into the hippocampus of rats to establish animal model of AD. As follows: […]
Spatial learning and memory tests: Morris water maze method. Platform located in the northeast quadrant of the middle of the maze; the water level is 1.5 cm above the platform; the temperature of water was maintained at 19° C.˜20° C.; rats were continuously training for 5d, twice a day; we set the maximum swimming time of 70s, recorded the time that rats found the platform (latent period, EL) by stopwatch.

[3] = test system: human hepatoma cell line Bel-7402; test: Chemosensitizing effect on tumor cells (MTT cytotoxicity); assay type: cell-based; conditions: 72 h
Method: Mangiferin-berberine salt (BM) was obtained by the method of embodiments as above. Cisplatin (DDP), adriamycin (ADM) and taxol were purchased from the market. Samples were dissolved in DMSO.
DMSO group, BM group (20 μmol/L), DDP group (1 μmol/L), ADM group (1 μmol/L), TAXOL group (1 μmol/L), BM (20 μmol/L)+DDP (1 μmol/L) group, BM (20 μmol/L)+ADM (1 μmol/L) group, BM (20 μmol/L)+TAXOL (1 μmol/L) group.
In accordance with 10^3-10^4/well, cultured human hepatoma cell line Bel-7402 200 μl per well were inoculated into 96-well cell culture plate, the samples were added after 24 hours. For those groups which are composed of the two samples, after mangiferin-berberine salt and cells were cultured together for 3 h, DDP or ADM or TAXOL were added, cultured for 72 h. Finally cell toxicity was determined by tetrazolium salt reduction (MTT). Experiments were repeated twice.

[4] = Precipitation of the acidic solutions at room temperature within 24 hours; assay type: physicochemical; conditions: for precipitate on standing: room temperature, 12 hours
Method: as §10
Mark all above the mangiferin-berberine salt solutions, places them at room temperature, observe the phenomenon within 24 hours.

ACC = test: Phosphorylation of ACC in L6 cells (Western blot, phospho-ACC ser79); assay type: cell-based, rat; conditions: 1.25-5 μmol/L, 3 h, dose-dependent
Method: as §5, §6, §7, §8, §9

[5] = Accelerated stability test, content by HPLC; assay type: physicochemical
Method: Put several parts of mangiferin-berberine salt into glass bottles, seal, set inside drug stability chamber, set accelerated testing conditions to: 40° C.±2° C./75% RH+5% RH. At 0 and 1 and 2 months, sample, determine the content of mangiferin-berberine salt by HPLC.

KK-ay mice = test: Effect on KK-ay mice (glucose, lipid, insulin, UAER, liver enzymes); assay type: in vivo; conditions: 40 mg/kg orally for 30 days, versus model group
Method: Mangiferin-berberine salt was obtained by the method of examples as above. Mangiferin-berberine salt was suspended with 3‰ sodium carboxymethyl cellulose before use. Rosiglitazone hydrochloride was purchased from Zhejiang wanma pharmaceutical Co., Ltd.
KK-ay mice, 16 weeks age, male.
KK-ay mice group (n=10); mangiferin-berberine salt low dose group (20 mg/kg, n=10, BML); mangiferin-berberine salt middle dose group (40 mg/kg, n=10, BMM); mangiferin-berberine salt high dose group (80 mg/kg, n=10), BMH metformin group[500 mg/kg, n=10]. Test samples or vehicle control was given orally for 30 days. KK-ay mice group were given vehicle.
The blood specimens were taken at the end of the experiment. Plasma glucose (GLU, mmol/L), lipid [triglycerides (TG, mmol/L), total cholesterol (TC, mmol/L), low density lipoprotein (LDL, mmol/L), high density lipoprotein (HDL, mmol/L)], liver enzyme [ALT(U/L) and AST(U/L)] were determined using GF-D800 semi-auto chemist which was purchased from Shandong Gaomi Caihong Analytical Instrument Co., Ltd.
Insulin: Radioimmunoassays (RIA), γ counter counts. insulin RIA Kit was purchased from Shandong Weifang City three-dimensional (3V) Biological Company. Urinary albumin. Collected urine for 24 h by metabolic cages, and recorded the output of urine. Urine was centrifuged, supernatant was taken, it was saved at −80° C. Free urinary were collected weekly Monday 13:00 by tail raise reflection. Assay urinary albumin by competitive ELISA, calculate the urinary albumin excretion rate (urinary albumin excretion rate=urinary albumin concentration (mg/L)×urine volume (ml)/total collection time (minutes)=mg/min, UAER), the units of figure is mg/24 h.
The results have been calculated as mean±SD ( x±SD) and comparisons of the data have been done by t-test.

[6] = high dose (40 mg/kg) orally for 4 weeks
[7] = middle dose (20 mg/kg) orally for 4 weeks

Substance: mangiferin-berberine salt
- water solubility ([1]; 5 mg in 50 ml distilled water, 25° C.±2° C., 30 minutes): less than 0.1 mg/ml
- solubility in boiling water ([1]; boiling water): slightly soluble in boiling water
- solubility in water ([1]; water): Almost insoluble in water
- paw swelling (rheumatoid arthritis rat; [6]): significantly inhibited
- paw swelling (rheumatoid arthritis rat; [7]): significantly inhibited
- phosphorylation of AMPK (AMPK): increases significantly
- dissolved phenomena ([2]; 50 mg in 50 ml water, pH 1): dissolved rapidly in the water of pH 1 in a few seconds
- dissolved phenomena ([2]; 50 mg in 50 ml water, pH 3): dissolved in the water of pH 3 in five minutes
- dissolved phenomena ([2]; 50 mg in 50 ml water, pH 5): did not dissolve completely
- dissolved phenomena ([2]; 100 mg in 50 ml water, pH 1): dissolved in the water of pH 1 in a minute
- dissolved phenomena ([2]; 100 mg in 50 ml water, pH 3): did not dissolve completely
- dissolved situation ([2]; 200 mg in 50 ml water, pH 1): can dissolve in the water of pH 1, but there is precipitation soon in the solution
- solubility in strong acid solution ([2]; strong acid solution, the smaller the pH, the better it dissolves): dissolves in strong acid solution
- secretion of cytokine TNF-α (TNF-α; [6]): significantly inhibited
- secretion of cytokine TNF-α (TNF-α; [7]): significantly inhibited
- EL (latent period) of fifth day, Morris water maze (dementia rats; high dose (80 mg/kg) orally for 4 weeks): significantly reduced
- EL (latent period) of fifth day, Morris water maze (dementia rats; middle dose (40 mg/kg) orally for 4 weeks): significantly reduced
- cytotoxicity combined with ADM versus ADM alone ([3]; Bel-7402, BM 20 μmol/L 3 h before ADM 1 μmol/L): significantly higher
- cytotoxicity combined with DDP versus DDP alone ([3]; Bel-7402, BM 20 μmol/L 3 h before DDP 1 μmol/L): significantly higher
- cytotoxicity combined with TAXOL versus TAXOL alone ([3]; Bel-7402, BM 20 μmol/L 3 h before TAXOL 1 μmol/L): significantly higher
- precipitate on standing ([4]; pH 1, 4 mg/ml): more precipitate
- precipitation in acid solution ([4]; pH 1-3, concentration below 2 mg/ml, within 12 hours): precipitation is only traces
- precipitation in acid solution ([4]; pH 1-3, concentration greater than 4 mg/ml): precipitates soon after it dissolves
- precipitate on standing ([4]; pH 1 and 3, 1 mg/ml and 2 mg/ml): trace precipitate
- phosphorylation of ACC (ACC): increases significantly
- content of mangiferin-berberine salt by HPLC ([5]; 40° C.±2° C./75% RH+5% RH, sealed glass bottles, 0, 1 and 2 months): do not significantly change
- shelf time at room temperature ([5]; suggested from the accelerated test): > 1 year
- INS (KK-ay mice): significantly improves
- ISI (KK-ay mice): significantly improves
- UAER (KK-ay mice): significantly improves
- blood glucose (KK-ay mice): significantly improves
- lipid (KK-ay mice): significantly improves
- liver enzymes (KK-ay mice): significantly improves
